Key:
[1] = test system: DNA T (matricial DNA separated from sound tissues); experiment: synthesis in vitro of DNA on a matrix of check DNA (DNA T) with DNA-polymerase, radioactive acidoprecipitable DNA measured; type: biochemical; settings: for replication of DNA-T (amount of radioactive DNA 3H synthetised): as a function of the amount of substance in the reactional medium (0 to 100 μg in 0.15 ml), 10 minutes at 36° C., FIG. 1, 3, 4; for replication of DNA-T separated from sound breast tissues: breast tissue DNA, FIG. 6; for replication of DNA taken on check tissues such as lung or liver tissues: lung or liver tissue DNA
Text: (§1) According to the invention, there is provided a method in which there is observed, in measuring the radioactive acidoprecipitable DNA, the synthesis of DNA on a matrix of DNA separated from sound tissues on the one hand, and on a matrix of DNA separated from cancerous tissues on the other hand, in a medium comprising four desoxyribonucleoside-5'-triphosphates, one of which is radioactive, and one enzyme DNA-polymerase, with the substance to be tested and without it.
(§2) For carrying into effect the test, which in itself is very short, it is necessary to hold several preparations, previously and carefully proven, of matricial DNA separated from sound tissues (check tissue, hereinafter referenced to as DNA T) and of matricial DNA separated from cancerous tissues (hereinafter referenced to as DNA C).
The preparations of DNA T are obtained in the same manner by using as raw material sound tissues separated from various human or animal organs, or from sound cells cultivated "in vitro" in a suitable medium.
(§3) For each test, it is necessary to hold at least four couples of matricial DNA of different origins, each couple being formed by an DNA T preparation and an DNA C preparation originating from the same organ, of the same animal kind. For example, there is used at least four couples selected among the following: DNA T and DNA C separated from lung tissue; DNA T and DNA C separated from breast tissue; DNA T and DNA C separated from ovary tissue; DNA T of primary cells of monkey kidney (RS), or of "Vero" cells, or of "SIRC" cells in culture and DNA C of KB cells or Hela cells, or L cells in culture.
(§4) For separating DNA, either from sound tissues or from cancerous tissues, there is used a modified conventional method of separation and purification (J. Narmur, J. Mol. Biol. 3 208, 1961). When a cancerous tissue or a tumour is used, the neighbouring sound or questionable tissues must first be discarded, and reciprocally, the sound tissues must be free from any questionable tissues.
(§5) Immediately after exeresis, the tissue is either frozen at -20° C., or finely crushed in a kneading machine, in the presence of a buffer 2 SSC (containing 17.4 g of NaCl and 10.7 g of trisodic citrate for 1 liter of sterile distilled water) in a sterile aqueous solution (1 to 3 ml of buffer according to the volume of tissue) and of a final concentration of 0.2% in laurylsulphate (by adding an aqueous mother solution of laurylsulphate at 20%).
(§6) In order to get rid of the proteins and to keep the DNA, several extractions are made in the presence of buffer 2 SSC and phenol (solution containing 10% of water), followed by extractions with chloroform and by centrifugations according to the conventional technique of separation and purification of DNA. The DNA present in the aqueous phases is precipitated in 96° alcohol, picked up with a glass rod, solved in a little volume of 1 SSC, then treated by the pancreatic ribonucleases and T1, what requires a whole supplementary cycle of repurification with phenol, then with chloroform. The DNA is dialysed against a solution of 2 SSC (24 hours at 4° C.), dosed by absorption in ultraviolet and stored frozen at -20° C., several months if necessary. Before use, the DNA is once more dialysed during several hours against sterile distilled water.
(§7) The DNA is characterized by its absorbance in ultraviolet at 260 nm and 280 nm. The typical ratio 260/280 varies from 2.0 to 2.1 according to the preparation. The content of the ARN in proteins varies from 0.3 to 0.6% and the content in polyribonucleotids having resisted the action of nucleases and contaminating the DNA is between 1 and 3%. The RNA (ribonucleic acid) can be eliminated by degradation by KOH 0.3 M (final concentration) during 16 hours at 36° C., and the DNA is then dialysed and stored as hereinabove mentioned. […]

[2] = test system: DNA C (matricial DNA separated from cancerous tissues); experiment: synthesis in vitro of DNA on a matrix of cancerous DNA (DNA C) with DNA-polymerase, radioactive acidoprecipitable DNA measured; type: biochemical; settings: for replication of DNA-C (amount of radioactive DNA 3H synthetised): as a function of the amount of substance in the reactional medium (0 to 100 μg in 0.15 ml), 10 minutes at 36° C., FIG. 1, 3, 4; for replication of DNA-C separated from cancerous breast tissues: breast tissue DNA, FIG. 6; for replication of DNA taken on cancerous tissues such as lung or liver tissues: lung or liver tissue DNA
Text: as §1, §2
The DNA C preparations are obtained by using as raw material various cancerous tissues or tumours taken on a human or animal organ, such as breast, lung, ovary, neuro-carcinome, ascites, etc. It is also possible to use cultures of cancerous cells such as KB or Hela cells, etc.
as §3, §4, §5, §6, §7

[3] = between 0,005 and 0,01 ml of acridine orange (0.1 mg/ml) in the medium, FIG. 2

Row | Compound | replication of DNA-T (amount of radioactive DNA 3H synthetised) [1] | replication of DNA-C (amount of radioactive DNA 3H synthetised) [2] | replication of DNA-T separated from sound breast tissues [1] | replication of DNA taken on check tissues such as lung or liver tissues [1] | replication of DNA-C separated from cancerous breast tissues [2] | replication of DNA taken on cancerous tissues such as lung or liver tissues [2] | other results
1 | c1cc[n+]2c(c1)-c1cccc[n+]1CC2 [Diquat, ethylene-1,1-bipyridilium-2,2-dibromid] | inhibition non selective | inhibition non selective |  |  |  |  | 
2 | O=C(O)c1cccnc1 [Nicotinic acid] | neutral | neutral |  |  |  |  | 
3 | CN(C)c1ccc2cc3ccc(N(C)C)cc3nc2c1 [acridine orange] |  |  |  |  |  |  | synthesis of DNA-T [1, 3]: slows down the synthesis; replication of check DNA ([1]; high concentrations): toxic and inhibit; replication of DNA-C ([2]; 0.005 ml acridine orange (0.1 mg/ml) in the medium, compared with DNA-T, FIG. 2): stimulation of DNA-C replication is clearly stronger than that of DNA-T; synthesis of DNA-C [2, 3]: slows down the synthesis; replication of cancerous DNA ([2]; high concentrations): toxic and inhibit
4 | C[C@]12CC[C@@H]3c4ccc(O)cc4CC[C@H]3[C@@H]1CC[C@@H]2O [estradiol] |  |  | stimulate weakly | no effect | very strongly | no effect | 
5 | C[C@]12CC[C@@H]3c4ccc(O)cc4CC[C@H]3[C@@H]1CCC2=O [estrone] |  |  | stimulate weakly | no effect | very strongly | no effect | 
6 | C1CNCCN1 [piperazine] | neutral | neutral |  |  |  |  | 

— US4264729A, “Method and reagent for detecting cancerigenic and anticancerous substances” (priority 1978, dated 1981)
